The source of these data is ChEMBL document CHEMBL3137667, “[Drug-induced liver injury; fourteenth updated edition of the bibliographic database of liver injuries and related drugs]” (Gastroenterol Clin Biol, 2004).

The nature of series [1]: Highest frequency of moderate liver toxicity observed during clinical trials, expressed as a percentage. [column '% BIOL' in source]. The note with it: human.
Series [2] can be described thus: Highest frequency of acute liver toxicity observed during clinical trials, expressed as a percentage. [column '% AIGUE' in source]. The note with it: human.
A short description of series [3]: Times to onset, minimal and maximal, observed in the indexed observations. [column 'DELAI' in source]. The note with it: human.
Series [4] in a line: Proposed mechanism(s) of liver damage. [column 'MEC' in source]. Particulars: human.
For series [5] the following is noted: human, serum.
For series [6] the following is noted: human, serum. This is another data set of the same source.
The conditions of series [7]: human.
The conditions of series [8]: human. This is another data set of the same source.
The conditions of series [9]: human. This is another data set of the same source.
The conditions of series [10]: human, serum, 4383 h.
For series [11] the following is noted: human. The source holds these as a separate data set.
The conditions of series [12]: human. The source holds these as a separate data set.
The conditions of series [13]: human. The source holds these as a separate data set.
The conditions of series [14]: human. The source holds these as a separate data set.
The conditions of series [15]: human. The source holds these as a separate data set.
The conditions of series [16]: human. The source holds these as a separate data set.
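Throughout, for Hepatotoxicity (association with vascular disease): count of indexed literature references reporting vascular liver injury in humans, e.g. peliosis hepatitis, hepatic veno-occlusive disease or Budd-Chiari syndrome.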
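Throughout, for Hepatotoxicity (benign tumour): value is a count of indexed literature references citing a benign tumour confirmed by histopathology.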
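Throughout, for Hepatotoxicity (choleostasis): human cholestatic liver injury, shown by histopathology or by peak ALT or AST elevation over alkaline phosphatase ratio below 2, value counts indexed literature reports.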
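Throughout, for Hepatotoxicity (chronic liver disease): chronic liver injury confirmed by histopathology or persistently raised serum aminotransferase activity beyond 6 months, value given as the count of indexed literature references.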
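Throughout, for Hepatotoxicity (cirrhosis): value is a count of indexed literature references reporting cirrhosis confirmed by histopathology.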
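Throughout, for Hepatotoxicity (cytolytic): human cytolytic liver injury, shown by histopathology or by a ratio above 5 of peak ALT or AST elevation to alkaline phosphatase elevation, value counts indexed references.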
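Throughout, for Hepatotoxicity (granulomatous hepatitis): value is a count of indexed literature references reporting granulomatous liver disease confirmed by histopathology.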
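Throughout, for Hepatotoxicity (malignant tumour): malignant tumour confirmed by histopathology, value gives the count of indexed literature references reporting it.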
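Throughout, for Hepatotoxicity (severe hepatitis): human clinical data: severe hepatitis, meaning potentially life-threatening liver failure or clinically observed cases, the value counts how many indexed literature references report it.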
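Throughout, for Hepatotoxicity (steatosis): steatosis confirmed by histopathology, value is the count of indexed references.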

On to `CCCc1nn(C)c2c(=O)[nH]c(-c3cc(S(=O)(=O)N4CCN(C)CC4)ccc3OCC)nc12`, for which the figures for the “Hepatotoxicity (moderate)” value in series [1] and in [5] were 0% and 0, respectively. For the same compound, the “Hepatotoxicity (acute)” value in series [2] was 0%; in series [6] it was 2. Also, in [3], the “Hepatotoxicity (time to onset)” value turned out to be 2 days - 4 months. Also, the “Hepatotoxicity (mechanism)” value in series [4] is reported as “Dose-dependant”. Besides, the “Hepatotoxicity (cytolytic)” value in [7] is 2. Further, in series [8], the “Hepatotoxicity (choleostasis)” value was found to be 0. For the same compound, the “Hepatotoxicity (severe hepatitis)” value in series [9] worked out at 0. For the same compound, the “Hepatotoxicity (chronic liver disease)” value in [10] stood at 0. The “Hepatotoxicity (cirrhosis)” value in series [11] is 0. Further, the “Hepatotoxicity (granulomatous hepatitis)” value in series [12] came to 0. Besides, the “Hepatotoxicity (association with vascular disease)” value in series [13] turned out to be 0. Further, the “Hepatotoxicity (steatosis)” value in series [14] was found to be 0. Further, the “Hepatotoxicity (malignant tumour)” value in series [15] was determined as 0. Also, the “Hepatotoxicity (benign tumour)” value in [16] is given as 0.

Take `CC(C)(O)c1ccccc1CC[C@@H](SCC1(CC(=O)O)CC1)c1cccc(/C=C/c2ccc3ccc(Cl)cc3n2)c1` [MONTELUKAST]: the results for the “Hepatotoxicity (moderate)” value in [1] and in series [5] were 13.9% and 3, respectively. For the same compound, in [3], the “Hepatotoxicity (time to onset)” value was 3 days - 2 years. In addition, the “Hepatotoxicity (mechanism)” value in [4] is listed as “Allergic”. Moreover, in [7], the “Hepatotoxicity (cytolytic)” value is on record as 2. In series [8], the “Hepatotoxicity (choleostasis)” value amounted to 2. Moreover, the “Hepatotoxicity (severe hepatitis)” value in series [9] was 0. Moreover, the “Hepatotoxicity (chronic liver disease)” value in series [10] is on record as 0. In addition, the “Hepatotoxicity (cirrhosis)” value in series [11] was determined as 0. Also, in series [12], the “Hepatotoxicity (granulomatous hepatitis)” value stood at 0. Further, the “Hepatotoxicity (association with vascular disease)” value in series [13] was found to be 0. Also, the “Hepatotoxicity (steatosis)” value in [14] came out at 0. Besides, the “Hepatotoxicity (malignant tumour)” value in series [15] worked out at 0. The “Hepatotoxicity (benign tumour)” value in [16] is 0.

As to `COc1c(N2C[C@@H]3CCCN[C@@H]3C2)c(F)cc2c(=O)c(C(=O)O)cn(C3CC3)c12` [MOXIFLOXACIN], the “Hepatotoxicity (moderate)” value was 6.9% in series [1] (Liver) and 3 in series [5]. Besides, in [3], the “Hepatotoxicity (time to onset)” value worked out at 26 days. Besides, the “Hepatotoxicity (mechanism)” value in series [4] is reported as “Dose-dependant”. Further, the “Hepatotoxicity (cytolytic)” value in series [7] was 0. Moreover, the “Hepatotoxicity (choleostasis)” value in [8] was 1. In addition, the “Hepatotoxicity (severe hepatitis)” value in series [9] (Liver) amounted to 0. The “Hepatotoxicity (chronic liver disease)” value in [10] amounted to 0. Moreover, in series [11], the “Hepatotoxicity (cirrhosis)” value is on record as 0. Further, the “Hepatotoxicity (granulomatous hepatitis)” value in [12] was determined as 0. Moreover, in [13], the “Hepatotoxicity (association with vascular disease)” value turned out to be 0. In series [14], the “Hepatotoxicity (steatosis)” value is reported as 0. For the same compound, the “Hepatotoxicity (malignant tumour)” value in series [15] was 0. The “Hepatotoxicity (benign tumour)” value in series [16] turned out to be 0.

For `CCn1cc(C(=O)O)c(=O)c2ccc(C)nc21` [NALIDIXIC ACID], the “Hepatotoxicity (moderate)” value was determined as 0% in series [1] and 2 in series [5]. In series [2], the “Hepatotoxicity (acute)” value was 0%. Further, the “Hepatotoxicity (time to onset)” value in series [3] turned out to be 2 weeks. The “Hepatotoxicity (mechanism)” value in series [4] is “Allergic”. Besides, in series [7], the “Hepatotoxicity (cytolytic)” value was 1. The “Hepatotoxicity (choleostasis)” value in series [8] is given as 2. Further, the “Hepatotoxicity (severe hepatitis)” value in series [9] is 0. For the same compound, in series [10], the “Hepatotoxicity (chronic liver disease)” value is 0. In addition, the “Hepatotoxicity (cirrhosis)” value in [11] is 0. Besides, the “Hepatotoxicity (granulomatous hepatitis)” value in series [12] turned out to be 0. The “Hepatotoxicity (association with vascular disease)” value in [13] came out at 0. Moreover, the “Hepatotoxicity (steatosis)” value in series [14] was 0. Besides, in series [15], the “Hepatotoxicity (malignant tumour)” value turned out to be 0. Also, the “Hepatotoxicity (benign tumour)” value in [16] amounted to 0.

As to `CN1c2ccccc2C(NCCCCCCC(=O)O)c2ccc(Cl)cc2S1(=O)=O` (centres undefined) [TIANEPTINE], the entries for the “Hepatotoxicity (moderate)” value in series [1] and in [5] were 0% and 0, respectively. Further, the “Hepatotoxicity (acute)” value is 0% in [2] and 4 in series [6]. Moreover, the “Hepatotoxicity (time to onset)” value in series [3] is given as 1 week - 6 months. Moreover, in series [4], the “Hepatotoxicity (mechanism)” value is given as “Reactive metabolite”. For the same compound, in [7], the “Hepatotoxicity (cytolytic)” value is recorded as 3. Further, the “Hepatotoxicity (choleostasis)” value in series [8] is given as 2. Also, the “Hepatotoxicity (severe hepatitis)” value in series [9] was 0. Besides, in series [10], the “Hepatotoxicity (chronic liver disease)” value stood at 0. Moreover, the “Hepatotoxicity (cirrhosis)” value in series [11] was determined as 0. Further, the “Hepatotoxicity (granulomatous hepatitis)” value in series [12] was determined as 0. Besides, the “Hepatotoxicity (steatosis)” value in [14] is listed as 1. Besides, the “Hepatotoxicity (malignant tumour)” value in series [15] is 0. For the same compound, in series [16], the “Hepatotoxicity (benign tumour)” value turned out to be 0.

As for INTERLEUKIN 6, the “Hepatotoxicity (moderate)” value was found to be 55% in series [1] and 9 in series [5]. Moreover, the results for the “Hepatotoxicity (acute)” value in [2] and in [6] were 0% and 2, respectively. Also, the “Hepatotoxicity (mechanism)” value in series [4] is “Dose-dependant”. In [7], the “Hepatotoxicity (cytolytic)” value worked out at 0. Moreover, in [8], the “Hepatotoxicity (choleostasis)” value is 1. In addition, in series [9], the “Hepatotoxicity (severe hepatitis)” value came out at 0. In series [10], the “Hepatotoxicity (chronic liver disease)” value is 0. Besides, the “Hepatotoxicity (cirrhosis)” value in series [11] worked out at 0. The “Hepatotoxicity (granulomatous hepatitis)” value in series [12] came out at 0. Also, the “Hepatotoxicity (association with vascular disease)” value in [13] amounted to 0. Also, in series [14], the “Hepatotoxicity (steatosis)” value was 0. The “Hepatotoxicity (malignant tumour)” value in series [15] is 0. Besides, the “Hepatotoxicity (benign tumour)” value in series [16] worked out at 0.

Take PEGASPARGASE: the “Hepatotoxicity (moderate)” value in series [1] stood at 0%; in [5], 0. The “Hepatotoxicity (acute)” value in [2] is 7.7%; in series [6], 2. For the same compound, the “Hepatotoxicity (mechanism)” value in [4] is recorded as “Dose-dependant”. Besides, the “Hepatotoxicity (cytolytic)” value in [7] was found to be 0. Moreover, in [8], the “Hepatotoxicity (choleostasis)” value amounted to 0. Moreover, in series [9], the “Hepatotoxicity (severe hepatitis)” value was determined as 0. In series [10], the “Hepatotoxicity (chronic liver disease)” value is 0. Besides, the “Hepatotoxicity (cirrhosis)” value in [11] stood at 0. Moreover, in series [12], the “Hepatotoxicity (granulomatous hepatitis)” value came to 0. Moreover, in series [13], the “Hepatotoxicity (association with vascular disease)” value is 0. The “Hepatotoxicity (steatosis)” value in series [14] is 0. In addition, in series [15], the “Hepatotoxicity (malignant tumour)” value was 0. The “Hepatotoxicity (benign tumour)” value in series [16] came to 0.

As to PEGLOTICASE, the “Hepatotoxicity (moderate)” value is recorded as 3.7% in [1] and 1 in [5]. The figures for the “Hepatotoxicity (acute)” value in series [2] and in series [6] were 0% and 0, respectively. The “Hepatotoxicity (mechanism)” value in series [4] is “Dose-dependant”. For the same compound, the “Hepatotoxicity (cytolytic)” value in series [7] was found to be 0. Moreover, the “Hepatotoxicity (choleostasis)” value in series [8] amounted to 0. The “Hepatotoxicity (severe hepatitis)” value in series [9] is on record as 0. In addition, the “Hepatotoxicity (chronic liver disease)” value in [10] is on record as 0. Further, in series [11], the “Hepatotoxicity (cirrhosis)” value came to 0. Further, the “Hepatotoxicity (granulomatous hepatitis)” value in series [12] is reported as 0. Besides, the “Hepatotoxicity (association with vascular disease)” value in series [13] is on record as 0. Besides, the “Hepatotoxicity (steatosis)” value in [14] turned out to be 0. The “Hepatotoxicity (malignant tumour)” value in [15] stood at 0. The “Hepatotoxicity (benign tumour)” value in series [16] amounted to 0.
